≈ marks a conversion by molar mass, not a printed value.
Legend:
Assay type in all cases: cell-based
S. aureus strain MP-12 = test: Broth dilution MIC determination (CLSI) against S. aureus strain MP-12; details: for MIC against S. aureus (MP-12): strain MP-12; for MIC: Staphylococcus aureus, MP12, strain MP-12
Procedure: (§1) Minimum inhibitory concentrations (MICs) for macrolides described herein were determined for E. coli strain MP-4, K. pneumoniae strain MP-548, P. aeruginosa strain MP-3, A. baumannii strain MP-15, and S. aureus strain MP-12 using similar test procedures as published in US Pat. Pub. No. 2017/0305953. MIC data is represented as “+++” for values less than or equal to 4 mg/L, “++” for values of greater than or equal to 8 mg/L and less than 32 mg/L, and “+” for values of 32 mg/L or greater. ND indicates no data for a particular compound. CLSI standard procedures for broth dilution MIC determination were used.

[1] = test system: P. aeruginosa strain MP-3; test: Broth dilution MIC determination (CLSI) against P. aeruginosa strain MP-3; details: Pseudomonas aeruginosa, MP3
Procedure: as §1

[2] = test system: A. baumannii strain MP-15; test: Broth dilution MIC determination (CLSI) against A. baumannii strain MP-15; details: Acinetobacter baumannii, MP15
Procedure: as §1

E. coli strain MP-4 = test: Broth dilution MIC determination (CLSI) against E. coli strain MP-4; details: Escherichia coli, MP4
Procedure: as §1

[3] = test system: K. pneumoniae strain MP-548; test: Broth dilution MIC determination (CLSI) against K. pneumoniae strain MP-548; details: Klebsiella pneumoniae, MP548
Procedure: as §1

| Compound | MIC against S. aureus (MP-12) (S. aureus strain MP-12) | MIC [1] [µg/mL] | MIC [2] [µg/mL] | MIC (E. coli strain MP-4) [µg/mL] | MIC [3] [µg/mL] | MIC (S. aureus strain MP-12) [µg/mL] |
| --- | --- | --- | --- | --- | --- | --- |
| 3-Descladinosyl-3-oxo-6-O-methyl-N9a-desmethyl-11,12-dideoxy-12,11-(oxycarbonylimino)-6,11-(Z-2-butenyl)-6′-cyclopropylamino azithromycin [Compound 230] | + (values of 32 mg/L or greater) | – | – | – | – | – |
| CC[C@H]1OC(=O)C(C)C(=O)[C@H](C)[C@@H](O[C@@H]2OC(CNCc3ccc(F)cc3)CC(N(C)C)C2O)[C@](C)(OC)C[C@@H](C)CN[C@H](C)[C@H]2NC(=O)O[C@@]21C (stereo partly drawn) [Compound 18] | – | ≥ 32 | ≥ 32 | ≤ 4 | 8 to 32 (≈ 10.9 to 43.4 µM) | ≥ 32 |
| CC[C@H]1OC(=O)C(C)C(=O)[C@H](C)[C@@H](O[C@@H]2OC(CNCc3cccc(-c4cncnc4)c3)CC(N(C)C)C2O)[C@](C)(OC)C[C@@H](C)CN[C@H](C)[C@H]2NC(=O)O[C@@]21C (stereo partly drawn) [Compound 20] | – | ≥ 32 | ≥ 32 | ≤ 4 | ≥ 32 | ≥ 32 |
| CC[C@H]1OC(=O)C(C)C(=O)[C@H](C)[C@@H](O[C@@H]2OC(CNCc3ccn(C)n3)CC(N(C)C)C2O)[C@](C)(OC)C[C@@H](C)CN[C@H](C)[C@H]2NC(=O)O[C@@]21C (stereo partly drawn) [Compound 21] | – | ≥ 32 | ≥ 32 | ≥ 32 | ≥ 32 | ≥ 32 |
| CC[C@H]1OC(=O)C(C)C(=O)[C@H](C)[C@@H](O[C@@H]2OC(CNCc3cccc(Oc4cnccn4)c3)CC(N(C)C)C2O)[C@](C)(OC)C[C@@H](C)CN[C@H](C)[C@H]2NC(=O)O[C@@]21C (stereo partly drawn) [Compound 22] | – | ≥ 32 | ≥ 32 | 8 to 32 (≈ 9.84 to 39.4 µM) | ≥ 32 | ≥ 32 |
| CC[C@H]1OC(=O)C(C)C(=O)[C@H](C)[C@@H](O[C@@H]2OC(CNCc3ccc4nccnc4c3)CC(N(C)C)C2O)[C@](C)(OC)C[C@@H](C)CN[C@H](C)[C@H]2NC(=O)O[C@@]21C (stereo partly drawn) [Compound 23] | – | ≥ 32 | ≥ 32 | ≤ 4 | ≥ 32 | ≥ 32 |
| CC[C@H]1OC(=O)C(C)C(=O)[C@H](C)[C@@H](O[C@@H]2OC(CNCc3cn(-c4cncnc4)nn3)CC(N(C)C)C2O)[C@](C)(OC)C[C@@H](C)CN[C@H](C)[C@H]2NC(=O)O[C@@]21C (stereo partly drawn) [Compound 24] | – | ≥ 32 | ≥ 32 | ≥ 32 | ≥ 32 | ≥ 32 |
| CC[C@H]1OC(=O)C(C)C(=O)[C@H](C)[C@@H](O[C@@H]2OC(CNCc3nccn3C)CC(N(C)C)C2O)[C@](C)(OC)C[C@@H](C)CN[C@H](C)[C@H]2NC(=O)O[C@@]21C (stereo partly drawn) [Compound 25] | – | ≥ 32 | ≥ 32 | ≥ 32 | ≥ 32 | ≥ 32 |
| CC[C@H]1OC(=O)C(C)C(=O)[C@H](C)[C@@H](O[C@@H]2OC(CNCc3cncc(-n4cncn4)n3)CC(N(C)C)C2O)[C@](C)(OC)C[C@@H](C)CN[C@H](C)[C@H]2NC(=O)O[C@@]21C (stereo partly drawn) [Compound 26] | – | ≥ 32 | ≥ 32 | ≥ 32 | ≥ 32 | ≥ 32 |
| CC[C@H]1OC(=O)C(C)C(=O)[C@H](C)[C@@H](O[C@@H]2OC(CNc3ccc4ncncc4c3)CC(N(C)C)C2O)[C@](C)(OC)C[C@@H](C)CN[C@H](C)[C@H]2NC(=O)O[C@@]21C (stereo partly drawn) [Compound 27] | – | ≥ 32 | ≥ 32 | 8 to 32 (≈ 10.6 to 42.3 µM) | ≥ 32 | ≥ 32 |
| CC[C@H]1OC(=O)C(C)C(=O)[C@H](C)[C@@H](O[C@@H]2OC(CNCc3ccccc3)CC(N(C)C)C2O)[C@](C)(OC)C[C@@H](C)CN[C@H](C)[C@H]2NC(=O)O[C@@]21C (stereo partly drawn) [Compound 28] | – | ≥ 32 | ≥ 32 | ≤ 4 | ≥ 32 | ≥ 32 |
| CC[C@H]1OC(=O)C(C)C(=O)[C@H](C)[C@@H](O[C@@H]2OC(CNCc3ccccc3F)CC(N(C)C)C2O)[C@](C)(OC)C[C@@H](C)CN[C@H](C)[C@H]2NC(=O)O[C@@]21C (stereo partly drawn) [Compound 29] | – | ≥ 32 | ≥ 32 | ≤ 4 | ≥ 32 | ≥ 32 |
| CC[C@H]1OC(=O)C(C)C(=O)[C@H](C)[C@@H](O[C@@H]2OC(CNCc3cccc(F)c3)CC(N(C)C)C2O)[C@](C)(OC)C[C@@H](C)CN[C@H](C)[C@H]2NC(=O)O[C@@]21C (stereo partly drawn) [Compound 30] | – | ≥ 32 | ≥ 32 | ≤ 4 | ≥ 32 | ≥ 32 |
| CC[C@H]1OC(=O)C(C)C(=O)[C@H](C)[C@@H](O[C@@H]2OC(CNCc3ccc(F)cc3F)CC(N(C)C)C2O)[C@](C)(OC)C[C@@H](C)CN[C@H](C)[C@H]2NC(=O)O[C@@]21C (stereo partly drawn) [Compound 31] | – | ≥ 32 | ≥ 32 | ≤ 4 | ≥ 32 | ≥ 32 |
| CC[C@H]1OC(=O)C(C)C(=O)[C@H](C)[C@@H](O[C@@H]2OC(CN[C@@H](C)c3ccc(F)cc3)CC(N(C)C)C2O)[C@](C)(OC)C[C@@H](C)CN[C@H](C)[C@H]2NC(=O)O[C@@]21C (stereo partly drawn) [Compound 32] | – | ≥ 32 | ≥ 32 | ≤ 4 | ≥ 32 | ≥ 32 |
| CC[C@H]1OC(=O)C(C)C(=O)[C@H](C)[C@@H](O[C@@H]2OC(CN[C@H](C)c3ccc(F)cc3)CC(N(C)C)C2O)[C@](C)(OC)C[C@@H](C)CN[C@H](C)[C@H]2NC(=O)O[C@@]21C (stereo partly drawn) [Compound 33] | – | ≥ 32 | ≥ 32 | ≤ 4 | ≥ 32 | ≥ 32 |
| CC[C@H]1OC(=O)C(C)C(=O)[C@H](C)[C@@H](O[C@@H]2OC(CN(C)Cc3ccc(F)cc3)CC(N(C)C)C2O)[C@](C)(OC)C[C@@H](C)CN[C@H](C)[C@H]2NC(=O)O[C@@]21C (stereo partly drawn) [Compound 34] | – | ≥ 32 | ≥ 32 | 8 to 32 (≈ 10.7 to 42.6 µM) | ≥ 32 | ≥ 32 |
| CC[C@H]1OC(=O)C(C)C(=O)[C@H](C)[C@@H](O[C@@H]2OC(CNCc3ccc(C(F)(F)F)cc3)CC(N(C)C)C2O)[C@](C)(OC)C[C@@H](C)CN[C@H](C)[C@H]2NC(=O)O[C@@]21C (stereo partly drawn) [Compound 35] | – | ≥ 32 | 8 to 32 (≈ 10.2 to 40.7 µM) | ≤ 4 | ≥ 32 | ≥ 32 |
| CC[C@H]1OC(=O)C(C)C(=O)[C@H](C)[C@@H](OC2OC(CNCC3CC3)CC(N(C)C)C2O)[C@](C)(OC)C[C@@H](C)CN[C@H](C)[C@H]2NC(=O)O[C@@]21C (stereo partly drawn) [Compound 119, 3-Descladinosyl-3-oxo-6-O-methyl-N9a-desmethyl-11,12-dideoxy-12,11-(oxycarbonylimino)-6′-(cyclopropylmethylamino) Azithromycin] | – | – | ≥ 32 | ≤ 4 | 8 to 32 (≈ 11.7 to 46.9 µM) | ≥ 32 |
| CC[C@H]1OC(=O)[C@]2(C)CCO[C@](C)(C[C@@H](C)CN[C@H](C)[C@H]3NC(=O)O[C@@]31C)[C@H](O[C@@H]1O[C@H](CNC3CC3)C[C@H](N(C)C)[C@H]1O)[C@@H](C)C2=O [Compound 203] | – | ≥ 32 | – | – | – | ≥ 32 |
| CC[C@H]1OC(=O)[C@]2(C)CCOC(C)(C[C@@H](C)CN[C@H](C)[C@H]3NC(=O)O[C@@]31C)[C@H](O[C@@H]1O[C@H](CNC34CC(C3)C4)C[C@H](N(C)C)[C@H]1O)[C@@H](C)C2=O [Compound 205] | + (values of 32 mg/L or greater) | – | – | – | – | – |
| CC[C@H]1OC(=O)[C@]2(C)CCOC(C)(C[C@@H](C)CN[C@H](C)[C@H]3NC(=O)O[C@@]31C)[C@H](O[C@@H]1O[C@H](CNCC(F)(F)F)C[C@H](N(C)C)[C@H]1O)[C@@H](C)C2=O [Compound 207] | – | – | – | – | – | ≥ 32 |
| CC[C@H]1OC(=O)[C@@]2(C)CCOC(C)(C[C@@H](C)CN(CC(C)C)[C@H](C)[C@H]3NC(=O)O[C@@]31C)[C@H](O[C@@H]1OC(C)CC(N(C)C)C1O)[C@@H](C)C2=O (stereo partly drawn) [Compound 222] | – | – | – | – | – | 8 to 32 (≈ 11.7 to 46.9 µM) |
| CCC1CO[C@@]2(C)C[C@@H](C)CN[C@H](C)[C@H]3NC(=O)O[C@]3(C)[C@@H](CC)OC(=O)[C@@]1(C)C(=O)[C@H](C)[C@H]2OC1OC(C)CC(N(C)C)C1O (stereo partly drawn) [Compound 225] | – | – | – | – | – | ≥ 32 |

— patent publication US11673910B2, “Macrolides with modified desosamine sugars and uses thereof” (Zikani Therapeutics, Inc., priority 2017, dated 2023)
